Here are results for 5 compounds from patent US20040058976A1, “Ophthalmic compositions for treating ocular hypertension” (priority 2003, published 2004).

The assay relates to IOP in Dutch Belted Rabbits. Briefly: Intraocular pressure (IOP) measurements in conscious Dutch Belted rabbits after topical instillation. Type of assay: in vivo, rabbit. The note with it: for 030 min (Δmm Hg) Treated Mean change in IOP / 60 min (Δmm Hg) Treated Mean change in IOP / 120 min (Δmm Hg) Treated Mean change in IOP / 180 min (Δmm Hg) Treated Mean change in IOP / 240 min (Δmm Hg) Treated Mean change in IOP / 30 min (Δ mm Hg) Treated Mean change in IOP: change from Time 0, n = 24. The protocol:
Intraocular pressure measurements (IOP) were performed in conscious adult, pigmented Dutch Belted rabbits (2-4 kg). The animals were allowed free access to standard laboratory diet and tap water, and were housed on a 12 hour light/dark cycle. Seven day rest or washout periods were allowed between assessment of the effects of topically administered treatments on IOP. In order to measure IOP, rabbits were placed in commercially available restraint boxes. Rabbits were conditioned to the restraint boxes on at least two occasions for a period of time ranging up to 6 hours before their first study. On the morning of each experiment, rabbits were placed in restraint boxes for a period of one hour before the first measurement of IOP. IOP was recorded using a pneumatic tonometer (Alcon Applanation Pneumatonograph). Eyelids were gently separated manually and the fingers of the operator were held far enough from the eye to avoid any direct pressure on the eye and surrounding tissues. The membrane of the tonometer was placed on the central part of the cornea. Each measure of IOP lasted 3-5 seconds during which time the animal was completely relaxed. In general, two measures for each eye was sufficient, the first measure being frequently discarded. The tonometer tracing represents the oscillations which correspond to ocular pulsations; the average value of the oscillations corresponded to the level of IOP in mm Hg.
The initial measurement of control IOP was done on a number of rabbits, and 12 rabbits whose control IOP were between 17-25 mm Hg (values of IOP considered to be normal) were selected for study. In each study, the rabbits were separated into two equal subgroups of 6 rabbits each with essentially equivalent control IOPs. Each study consisted of the topical administration of active test substance to one subgroup of 6 rabbits (12 eyes) and vehicle to one subgroup of 6 rabbits (12 eyes); total number of eyes tested per study being 24. In each study, one drop (volume of 50 ul) of active test substance per vehicle was instilled by means of a Hamilton syringe into both eyes of each rabbit at time ) (To). IOPs were re-measured at 30 min, 1 hour, 2 hours, 3 hours and 4 hours after instillation. Results were expressed as mean+/−SD of changes in IOP (mm Hg) from the basal To levels measured just prior to the instillation of active test agent or vehicle. The significance of the data was determined as the difference from the To value using Dunnett's t-test, as well as use of an unpaired Student's t-test for comparisons of changes in IOP between test substance and vehicle at matched time points.
Vehicles consisted of 0.5% […] peanut oil. Formulation of test agents in peanut oil was performed as follows: peanut oil formulations were prepared by dissolving 0.5%, 0.2%, 0.1%, 0.05%, 0.025% or 0.01% (wt./wt) of the test compound in peanut oil. Sonnication was used to obtain complete dissolution of the compound.

Setting [1] is: Table 2, 0.1% in peanut oil, topical.
[2] abbreviates: Table 3, 0.1% in peanut oil, topical.
The mark [3] stands for this setting: Table 5, 0.1% in peanut oil, topical.

On to `COc1ccc2c(c1)c(CC(=O)N(C(=O)NC1CCCCC1)C1CCCCC1)c(C)n2C(=O)c1ccc(Cl)cc1` [Compound 1], for which the “effect on IOP (in words)” value (0.2% formulated in peanut oil) was “significant IOP lowering”. Moreover, for the setting “0.2% in peanut oil, topical, 30 min”, the “030 min (Δmm Hg) Treated Mean change in IOP” value is recorded as −2.0 mm Hg. Moreover, where the note is “0.2% in peanut oil, topical”, the “60 min (Δmm Hg) Treated Mean change in IOP” value was −2.58 mm Hg, the “120 min (Δmm Hg) Treated Mean change in IOP” value is −2.96 mm Hg, the “180 min (Δmm Hg) Treated Mean change in IOP” value is on record as −2.42 mm Hg and the “240 min (Δmm Hg) Treated Mean change in IOP” value is recorded as −1.58 mm Hg.

With `CC(C)(O)[C@H]1O[C@H]2CC[C@@]3(C)[C@@](O)(CC[C@H]4Cc5c([nH]c6ccccc56)[C@@]43C)C2=CC1=O` [Paxilline], for the setting “Table 2, 0.1% in peanut oil, topical, 30 min”, the “30 min (Δ mm Hg) Treated Mean change in IOP” value is listed as −0.79 mm Hg. Under setting [1], the “60 min (Δmm Hg) Treated Mean change in IOP” value is recorded as −2.67 mm Hg, the “120 min (Δmm Hg) Treated Mean change in IOP” value is reported as −2.67 mm Hg, the “180 min (Δmm Hg) Treated Mean change in IOP” value was −1.71 mm Hg and the “240 min (Δmm Hg) Treated Mean change in IOP” value is −1.38 mm Hg.

On to `C=C(C)[C@H]1O[C@H]2CC[C@@]3(C)[C@@](O)(CC[C@H]4[C@@H]5OC(C)(C)[C@H]6C[C@@H]7C(=C)Cc8c(Cl)cc9[nH]c(c5c9c8[C@@]76O)[C@@]43C)[C@@]23O[C@H]3[C@H]1O` [Penitrem A], for which the “effect on IOP (in words)” value (0.1% formulated in peanut oil) is “significant IOP lowering”. Besides, the “30 min (Δ mm Hg) Treated Mean change in IOP” value (Table 3, 0.1% in peanut oil, topical, 30 min) is recorded as −1.33 mm Hg. Also, under setting [2], the “60 min (Δmm Hg) Treated Mean change in IOP” value was −2.08 mm Hg, the “120 min (Δmm Hg) Treated Mean change in IOP” value is −3.91 mm Hg, the “180 min (Δmm Hg) Treated Mean change in IOP” value was −2.96 mm Hg and the “240 min (Δmm Hg) Treated Mean change in IOP” value is reported as −2.46 mm Hg.

For `CC(C)(C)NC[C@H](O)COc1nsnc1N1CCOCC1` [Timolol Free Base, timolol], the “effect on IOP (in words)” value (0.5% (free base equivalent) formulated in peanut oil) was “significant IOP lowering”. Moreover, the “030 min (Δmm Hg) Treated Mean change in IOP” value (0.5% in peanut oil, topical 50 ul both eyes, 30 min after instillation) was −2.63 mm Hg. In addition, for the setting “0.5% in peanut oil, topical”, the “60 min (Δmm Hg) Treated Mean change in IOP” value is −3.46 mm Hg, the “120 min (Δmm Hg) Treated Mean change in IOP” value is on record as −3.96 mm Hg, the “180 min (Δmm Hg) Treated Mean change in IOP” value is −4.21 mm Hg and the “240 min (Δmm Hg) Treated Mean change in IOP” value was −2.04 mm Hg.

Consider Afletrem, for which the “030 min (Δmm Hg) Treated Mean change in IOP” value (Table 5, 0.1% in peanut oil, topical, 30 min) is recorded as −1.54 mm Hg. Further, under setting [3], the “60 min (Δmm Hg) Treated Mean change in IOP” value is recorded as −2.04 mm Hg, the “120 min (Δmm Hg) Treated Mean change in IOP” value is recorded as −2.54 mm Hg, the “180 min (Δmm Hg) Treated Mean change in IOP” value is −2.13 mm Hg and the “240 min (Δmm Hg) Treated Mean change in IOP” value is listed as −1.42 mm Hg.
